Data on 2 compounds can be found in PMC10300798, “Alternative Enzyme Inhibition Assay for Safety Evaluation of Food Preservatives” (Life, 2023).

Some results are limits rather than exact numbers.

Holding throughout (format): biochemical
The target of assay [1] is T1, alcohol dehydrogenase (ADH) (Saccharomyces cerevisiae, UniProt P00330).
T1 construct: gene ADH1
T1 sequence (P00330 2-348): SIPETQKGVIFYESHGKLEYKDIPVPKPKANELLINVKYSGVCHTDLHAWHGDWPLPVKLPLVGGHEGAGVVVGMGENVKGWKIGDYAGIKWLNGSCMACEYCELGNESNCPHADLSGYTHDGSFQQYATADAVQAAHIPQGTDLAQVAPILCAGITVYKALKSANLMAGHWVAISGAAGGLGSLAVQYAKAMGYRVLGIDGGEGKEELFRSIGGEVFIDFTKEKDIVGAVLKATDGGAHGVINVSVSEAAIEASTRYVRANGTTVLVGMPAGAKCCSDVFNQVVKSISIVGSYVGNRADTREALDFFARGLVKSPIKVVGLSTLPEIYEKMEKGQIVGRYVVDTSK
As to the kind of experiment: spectrophotometric NAD+ reduction, […] nm. The settings on record: read-out: Potassium Sorbate / IC20.

In assay [2] the target is T2, trypsin (Try) (Sus scrofa, UniProt P00761).
T2 construct: native, from porcine pancreas, lyophilized, 1300 BAEE U/mg (Sigma-Aldrich)
As to the kind of experiment: BAEE hydrolysis, absorbance […] nm. The settings on record: read-out: Potassium Sorbate / IC50 (converted).

In assay [3] the target is T3, lactate dehydrogenase (LDH) (Oryctolagus cuniculus, UniProt P13491).
T3 construct: gene LDHA
As to the kind of experiment: spectrophotometric NAD+ reduction, […] nm. The settings on record: read-out: Sodium Benzoate / IC20.

T2 sequence (P00761 9-231): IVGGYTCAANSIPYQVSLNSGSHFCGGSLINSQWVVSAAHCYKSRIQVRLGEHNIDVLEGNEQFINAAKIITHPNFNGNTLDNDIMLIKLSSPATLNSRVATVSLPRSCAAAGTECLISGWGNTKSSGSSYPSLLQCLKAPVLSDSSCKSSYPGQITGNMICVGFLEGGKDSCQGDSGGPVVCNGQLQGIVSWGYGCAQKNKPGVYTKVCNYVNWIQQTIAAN

Turning to `C/C=C/C=C/C(=O)O` [potassium sorbate], the IC20 in assay [1] is above 5000 µg/mL. The IC50 in assay [2] was 134 µM. For the compound `O=C(O)c1ccccc1` [sodium benzoate], in assay [3], the IC20 amounted to 2200 ± 321 µg/mL.
